Measured values as given in US20250154141A1 (University of Florida Research Foundation, Incorporated, priority 2021, published 2025).
Read-outs that look alike come from different tables or passages of the source.

Assays:
MOLT-4 = test: Cell viability assay (MTS) in MOLT-4 cells; format: cell-based; conditions: Homo sapiens, MOLT-4
Procedure: (§1) Acute lymphoblastic leukemia cells (MOLT-4 and RS4; 11) were incubated with increasing concentrations of Bcl-xL degraders for 48 h. Cell viability was measured by tetrazolium-based MTS assay.

RS4; 11 = test: Cell viability assay (MTS) in RS4; 11 cells; format: cell-based; conditions: Homo sapiens, RS4-11
Procedure: as §1

[1] = Table 2, 48 hr, MTS, read-out: Anti-Cancer Activity IC50 (48 hr) MOLT-4
[2] = Table 2, 48 hr, MTS, read-out: Anti-Cancer Activity IC50 (48 hr) RS4, 11
[3] = Table 5, 48 h, read-out: MOLT-4 48 h IC50
[4] = Table 5, 48 h, read-out: RS4 48 h IC50

**Q.** For `Cc1ncsc1-c1ccc([C@H](C)NC(=O)[C@@H]2C[C@@H](O)CN2C(=O)[C@@H](NC(=O)CCCCCCC(=O)N2CCN(C[C@]3(C)CCC(c4ccc(Cl)cc4)=C(CN4CCN(c5ccc(C(=O)NS(=O)(=O)c6ccc(N[C@H](CCN7CCCCC7)CSc7ccccc7)c([N+](=O)[O-])c6)cc5)CC4)C3)CC2)C(C)(C)C)cc1` [Compound 40, (2S,4R)-1-((S)-2-(8-(4-(((R)-4′-chloro-4-methyl-6-((4-(4-(((3-nitro-4-(((R)-1-(phenylthio)-4-(piperidin-1-yl)butan-2-yl)amino)phenyl)sulfonyl)carbamoyl)phenyl)piperazin-1-yl)methyl)-2,3,4,5-tetrahydro-[1,1′-biphenyl]-4-yl)methyl)piperazin-1-yl)-8-oxooctanamido)-3,3-dimethylbutanoyl)-4-hydroxy-N—((S)-1-(4-(4-methylthiazol-5-yl)phenyl)ethyl)pyrrolidine-2-carboxamide], which IC50 (MOLT-4; [1]) is on record?
**A.** < 0.02 µM

**Q.** What about the IC50 (RS4; 11; [2]) of the same compound?
**A.** < 0.02 µM

**Q.** For `Cc1ncsc1-c1ccc([C@H](C)NC(=O)[C@@H]2C[C@@H](O)CN2C(=O)[C@@H](NC(=O)CCCCCCC(=O)N2CCN(C[C@]3(C)CCC(c4ccc(Cl)cc4)=C(CN4CCN(c5ccc(C(=O)NS(=O)(=O)c6ccc(N[C@H](CCN(C)CCO)CSc7ccccc7)c([N+](=O)[O-])c6)cc5)CC4)C3)CC2)C(C)(C)C)cc1` [Compound 42, (2S,4R)-1-((S)-2-(8-(4-(((R)-4′-chloro-6-((4-(4-(((4-(((R)-4-((2-hydroxyethyl)(methyl)amino)-1-(phenylthio)butan-2-yl)amino)-3-nitrophenyl)sulfonyl)carbamoyl)phenyl)piperazin-1-yl)methyl)-4-methyl-2,3,4,5-tetrahydro-[1,1′-biphenyl]-4-yl)methyl)piperazin-1-yl)-8-oxooctanamido)-3,3-dimethylbutanoyl)-4-hydroxy-N—((S)-1-(4-(4-methylthiazol-5-yl)phenyl)ethyl)pyrrolidine-2-carboxamide], which IC50 (MOLT-4; [1]) is on record?
**A.** 0.02 to 0.1 µM

**Q.** And the IC50 (RS4; 11; [2])?
**A.** < 0.02 µM

**Q.** `CCN(CCO)CC[C@H](CSc1ccccc1)Nc1ccc(S(=O)(=O)NC(=O)c2ccc(N3CCN(CC4=C(c5ccc(Cl)cc5)CCC(C)(CN5CCN(C(=O)CCCCCCC(=O)N[C@H](C(=O)N6C[C@H](O)C[C@H]6C(=O)N[C@@H](C)c6ccc(-c7scnc7C)cc6)C(C)(C)C)CC5)C4)CC3)cc2)cc1[N+](=O)[O-]` (stereo partly drawn) [Compound 43, (2S,4R)-1-((2S)-2-(8-(4-((4′-chloro-6-((4-(4-(((4-(((R)-4-(ethyl(2-hydroxyethyl)amino)-1-(phenylthio)butan-2-yl)amino)-3-nitrophenyl)sulfonyl)carbamoyl)phenyl)piperazin-1-yl)methyl)-4-methyl-2,3,4,5-tetrahydro-[1,1′-biphenyl]-4-yl)methyl)piperazin-1-yl)-8-oxooctanamido)-3,3-dimethylbutanoyl)-4-hydroxy-N—((S)-1-(4-(4-methylthiazol-5-yl)phenyl)ethyl)pyrrolidine-2-carboxamide] was tested. Which IC50 (MOLT-4; [1]) did it give?
**A.** 0.02 to 0.1 µM

**Q.** What about the IC50 (MOLT-4; [3]) of the same compound?
**A.** 0.0785 µM

**Q.** What about the IC50 (RS4; 11; [2]) of the same compound?
**A.** < 0.02 µM

**Q.** And the IC50 (RS4; 11; [4])?
**A.** 0.0073 µM

**Q.** `Cc1ncsc1-c1ccc([C@H](C)NC(=O)[C@@H]2C[C@@H](O)CN2C(=O)[C@@H](NC(=O)CCCCCCC(=O)N2CCN(CC3(C)CCC(c4ccc(Cl)cc4)=C(CN4CCN(c5ccc(C(=O)NS(=O)(=O)c6ccc(N[C@H](CCN(CCO)C7CC7)CSc7ccccc7)c([N+](=O)[O-])c6)cc5)CC4)C3)CC2)C(C)(C)C)cc1` (stereo partly drawn) [Compound 44, (2S,4R)-1-((2S)-2-(8-(4-((4′-chloro-6-((4-(4-(((4-(((R)-4-(cyclopropyl(2-hydroxyethyl)amino)-1-(phenylthio)butan-2-yl)amino)-3-nitrophenyl)sulfonyl)carbamoyl)phenyl)piperazin-1-yl)methyl)-4-methyl-2,3,4,5-tetrahydro-[1,1′-biphenyl]-4-yl)methyl)piperazin-1-yl)-8-oxooctanamido)-3,3-dimethylbutanoyl)-4-hydroxy-N—((S)-1-(4-(4-methylthiazol-5-yl)phenyl)ethyl)pyrrolidine-2-carboxamide] was tested. Which IC50 (MOLT-4; [1]) did it give?
**A.** 0.1 to 0.5 µM

**Q.** And the IC50 (RS4; 11; [2])?
**A.** 0.02 to 0.1 µM

**Q.** With `Cc1ncsc1-c1ccc([C@H](C)NC(=O)[C@@H]2C[C@@H](O)CN2C(=O)[C@@H](NC(=O)CCCCCCC(=O)N2CCN(CC3(C)CCC(c4ccc(Cl)cc4)=C(CN4CCN(c5ccc(C(=O)NS(=O)(=O)c6ccc(N[C@H](CCN7CCCCC7CO)CSc7ccccc7)c([N+](=O)[O-])c6)cc5)CC4)C3)CC2)C(C)(C)C)cc1` (stereo partly drawn) [Compound 45, (2S,4R)-1-((2S)-2-(8-(4-((4′-chloro-6-((4-(4-(((4-(((2R)-4-(2-(hydroxymethyl)piperidin-1-yl)-1-(phenylthio)butan-2-yl)amino)-3-nitrophenyl)sulfonyl)carbamoyl)phenyl)piperazin-1-yl)methyl)-4-methyl-2,3,4,5-tetrahydro-[1,1′-biphenyl]-4-yl)methyl)piperazin-1-yl)-8-oxooctanamido)-3,3-dimethylbutanoyl)-4-hydroxy-N—((S)-1-(4-(4-methylthiazol-5-yl)phenyl)ethyl)pyrrolidine-2-carboxamide] as the compound, how does the IC50 (MOLT-4; [1]) read?
**A.** 0.1 to 0.5 µM

**Q.** And the IC50 (RS4; 11; [2])?
**A.** 0.02 to 0.1 µM

**Q.** Which results are given for `Cc1ncsc1-c1ccc([C@H](C)NC(=O)[C@@H]2C[C@@H](O)CN2C(=O)[C@@H](NC(=O)CCCCCCC(=O)N2CCN(CC3(C)CCC(c4ccc(Cl)cc4)=C(CN4CCN(c5ccc(C(=O)NS(=O)(=O)c6ccc(N[C@H](CCN7CCC(O)CC7)CSc7ccccc7)c([N+](=O)[O-])c6)cc5)CC4)C3)CC2)C(C)(C)C)cc1` (stereo partly drawn) [Compound 46, (2S,4R)-1-((2S)-2-(8-(4-((4′-chloro-6-((4-(4-(((4-(((R)-4-(4-hydroxypiperidin-1-yl)-1-(phenylthio)butan-2-yl)amino)-3-nitrophenyl)sulfonyl)carbamoyl)phenyl)piperazin-1-yl)methyl)-4-methyl-2,3,4,5-tetrahydro-[1,1′-biphenyl]-4-yl)methyl)piperazin-1-yl)-8-oxooctanamido)-3,3-dimethylbutanoyl)-4-hydroxy-N—((S)-1-(4-(4-methylthiazol-5-yl)phenyl)ethyl)pyrrolidine-2-carboxamide]?
**A.** IC50 (MOLT-4; [1]): 0.02 to 0.1 µM; IC50 (MOLT-4; [3]): 0.0559 µM; IC50 (RS4; 11; [2]): < 0.02 µM; IC50 (RS4; 11; [4]): 0.0058 µM

**Q.** `Cc1ncsc1-c1ccc([C@H](C)NC(=O)[C@@H]2C[C@@H](O)CN2C(=O)[C@@H](NC(=O)CCCCCCC(=O)N2CCN(CC3(C)CCC(c4ccc(Cl)cc4)=C(CN4CCN(c5ccc(C(=O)NS(=O)(=O)c6ccc(N[C@H](CCN7CCC(CO)CC7)CSc7ccccc7)c([N+](=O)[O-])c6)cc5)CC4)C3)CC2)C(C)(C)C)cc1` (stereo partly drawn) [Compound 47, (2S,4R)-1-((2S)-2-(8-(4-((4′-chloro-6-((4-(4-(((4-(((R)-4-(4-(hydroxymethyl)piperidin-1-yl)-1-(phenylthio)butan-2-yl)amino)-3-nitrophenyl)sulfonyl)carbamoyl)phenyl)piperazin-1-yl)methyl)-4-methyl-2,3,4,5-tetrahydro-[1,1′-biphenyl]-4-yl)methyl)piperazin-1-yl)-8-oxooctanamido)-3,3-dimethylbutanoyl)-4-hydroxy-N—((S)-1-(4-(4-methylthiazol-5-yl)phenyl)ethyl)pyrrolidine-2-carboxamide] was tested. Which IC50 (MOLT-4; [1]) did it give?
**A.** 0.1 to 0.5 µM

**Q.** And the IC50 (RS4; 11; [2])?
**A.** 0.02 to 0.1 µM

**Q.** With `CC(=O)N1CCN(CC[C@H](CSc2ccccc2)Nc2ccc(S(=O)(=O)NC(=O)c3ccc(N4CCN(CC5=C(c6ccc(Cl)cc6)CCC(C)(CN6CCN(C(=O)CCCCCCC(=O)N[C@H](C(=O)N7C[C@H](O)C[C@H]7C(=O)N[C@@H](C)c7ccc(-c8scnc8C)cc7)C(C)(C)C)CC6)C5)CC4)cc3)cc2[N+](=O)[O-])CC1` (stereo partly drawn) [Compound 48, (2S,4R)-1-((2S)-2-(8-(4-((6-((4-(4-(((4-(((R)-4-(4-acetylpiperazin-1-yl)-1-(phenylthio)butan-2-yl)amino)-3-nitrophenyl)sulfonyl)carbamoyl)phenyl)piperazin-1-yl)methyl)-4′-chloro-4-methyl-2,3,4,5-tetrahydro-[1,1′-biphenyl]-4-yl)methyl)piperazin-1-yl)-8-oxooctanamido)-3,3-dimethylbutanoyl)-4-hydroxy-N—((S)-1-(4-(4-methylthiazol-5-yl)phenyl)ethyl)pyrrolidine-2-carboxamide] as the compound, how does the IC50 (MOLT-4; [1]) read?
**A.** 0.02 to 0.1 µM

**Q.** What about the IC50 (RS4; 11; [2]) of the same compound?
**A.** < 0.02 µM

**Q.** For `Cc1ncsc1-c1ccc([C@H](C)NC(=O)[C@@H]2C[C@@H](O)CN2C(=O)[C@@H](NC(=O)CCCCCCC(=O)N2CCN(CC3(C)CCC(c4ccc(Cl)cc4)=C(CN4CCN(c5ccc(C(=O)NS(=O)(=O)c6ccc(N[C@H](CCO)CSc7ccccc7)c([N+](=O)[O-])c6)cc5)CC4)C3)CC2)C(C)(C)C)cc1` (stereo partly drawn) [Compound 49, (2S,4R)-1-((2S)-2-(8-(4-((4′-chloro-6-((4-(4-(((4-(((R)-4-hydroxy-1-(phenylthio)butan-2-yl)amino)-3-nitrophenyl)sulfonyl)carbamoyl)phenyl)piperazin-1-yl)methyl)-4-methyl-2,3,4,5-tetrahydro-[1,1′-biphenyl]-4-yl)methyl)piperazin-1-yl)-8-oxooctanamido)-3,3-dimethylbutanoyl)-4-hydroxy-N—((S)-1-(4-(4-methylthiazol-5-yl)phenyl)ethyl)pyrrolidine-2-carboxamide], which IC50 (MOLT-4; [1]) is on record?
**A.** 0.5 to 10 µM

**Q.** And the IC50 (RS4; 11; [2])?
**A.** 0.02 to 0.1 µM

**Q.** For `COCC[C@H](CSc1ccccc1)Nc1ccc(S(=O)(=O)NC(=O)c2ccc(N3CCN(CC4=C(c5ccc(Cl)cc5)CCC(C)(CN5CCN(C(=O)CCCCCCC(=O)N[C@H](C(=O)N6C[C@H](O)C[C@H]6C(=O)N[C@@H](C)c6ccc(-c7scnc7C)cc6)C(C)(C)C)CC5)C4)CC3)cc2)cc1[N+](=O)[O-]` (stereo partly drawn) [Compound 50, (2S,4R)-1-((2S)-2-(8-(4-((4′-chloro-6-((4-(4-(((4-(((R)-4-methoxy-1-(phenylthio)butan-2-yl)amino)-3-nitrophenyl)sulfonyl)carbamoyl)phenyl)piperazin-1-yl)methyl)-4-methyl-2,3,4,5-tetrahydro-[1,1′-biphenyl]-4-yl)methyl)piperazin-1-yl)-8-oxooctanamido)-3,3-dimethylbutanoyl)-4-hydroxy-N—((S)-1-(4-(4-methylthiazol-5-yl)phenyl)ethyl)pyrrolidine-2-carboxamide], which IC50 (MOLT-4; [1]) is on record?
**A.** 0.5 to 10 µM

**Q.** What about the IC50 (RS4; 11; [2]) of the same compound?
**A.** 0.02 to 0.1 µM
